Values joined by “and” are separate entries in the source; they are usually repeats but may differ in a detail not shown here. Identical values can stand only once.
Key:
[1] = system: rat uterine decidualization; assay: Rat decidualization assay; conditions: ovariectomized rats, s.c.; for Estimated average EC50: average of dose-response curves; for EC50: uterine wet weight (decidual response), individual studies
T47D cells = assay: T47D cell proliferation assay (BrdU incorporation); type: cell-based; conditions: decrease in trimegestone induced BrdU incorporation, individual experiments
Procedure: 3. T47D Cell Proliferation Assay
The objective of this assay is the determination of progestational and antiprogestational potency by using a cell proliferation assay in T47D cells. A compound's effect on DNA synthesis in T47D cells is measured.
DMEM:F12(1:1) (GIBCO, BRL) supplemented with 10% (v/v) fetal bovine serum (not heat-inactivated), 100 U/ml penicillin, […], and 2 mM GlutaMax (GIBCO, BRL).
Minimum Essential Medium (MEM) (#51200-038GIBCO, BRL) phenol red-free supplemented with 0.5% charcoal stripped fetal bovine serum, 100 U/ml penicillin, […] streptomycin, and 2 mM GlutaMax (GIBCO, BRL). […]
At the end of BrdU labeling, the medium is removed and BrdU incorporation is measured using a cell proliferation ELISA kit (#RPN 250, Amersham Life Science) according to manufacturer's instructions. […] Then 25 μl of 1 M sulfuric acid is added to each well to stop color reaction and optical density is read in a plate reader at 450 nm within 5 min.
Square root-transformed data are used for analysis of variance and nonlinear dose response curve fitting for both agonist and antagonist modes. […] EC50 or IC50 values are calculated from the retransformed values.
Trimegestone and medroxyprogesterone acetate (MPA) are reference progestins and RU486 is the reference antiprogestin. All reference compounds are run in fill dose-response curves and the EC50 or IC50 values are calculated.

Row | Structure (SMILES) | Estimated average EC50 [1] [mg/kg. s.c.] | melting point [°C] | IC50 (T47D cells) | EC50 [1]
1 | CCC1C(=O)Nc2ccc(-c3cccc(Cl)c3)cc21 (stereo not shown) [Example 6, 5-(3Chloro-phenyl)-3-ethyl-1,3-dihydro-indol-2-one] | – | 100 to 101 | – | –
2 | O=C1CCC(c2cc(F)cc(Br)c2)CC12CNc1ccccc12 (stereo not shown) [Example 28, 5-(3-Bromo-5-fluorophenyl)spiro[cyclohexane-1,3-[3H]indol]-2(1′H)-one] | – | 194 to 196 | – | –

Continued, in another order:

Row | Estimated average EC50 [1] [mg/kg. s.c.] | melting point [°C] | IC50 (T47D cells) | Structure (SMILES) | EC50 [1]
3 | 0.10 | – | – | C#C[C@]1(O)CC[C@H]2[C@@H]3CCC4=CC(=O)CC[C@@H]4[C@H]3C(=C)C[C@@]21CC [3-Ketodesogestrel, 3-ketodesogestrel] | 0.10 mg/kg, s.c. and 0.06 mg/kg, s.c. and 0.11 mg/kg, s.c.
4 | 0.10 | – | – | C#C[C@]1(O)CC[C@H]2[C@@H]3CCC4=CC(=O)CC[C@@H]4[C@H]3CC[C@@]21CC [Levonorgestrel, levonorgestrel] | 0.08 mg/kg, s.c. and 0.12 mg/kg, s.c. and 0.09 mg/kg, s.c. (2×)
5 | – | – | 0.016 nM and 0.018 nM | CC#C[C@]1(O)CC[C@H]2[C@@H]3CCC4=CC(=O)CCC4=C3[C@@H](c3ccc(N(C)C)cc3)C[C@@]21C [RU486] | –

From patent US6462032B1, “Cyclic regimens utilizing indoline derivatives” (Wyeth, priority 1999, dated 2002)
